Laboratory results as given in patent publication US20260263550A1, “METHODS AND COMPOSITIONS FOR TREATING, PREVENTING, INHIBITING, AMELIORATING OR DELAYING THE ONSET OF OPHTHALMIC CONDITIONS” (Stealth BioTherapeutics Inc., priority 2021, published 2026).
Values joined by “and” are separate entries in the source; they are usually repeats but may differ in a detail not shown here. Equal entries are not always repeated.

How the values were obtained:
[1] = test system: iPSC-derived RPE cells from AMD donors; assay: Cell viability assay on nitrite-modified ECM (Real Time-Glo MT Cell Viability Assay); format: cell-based, human; details: 10, 100, 1000 nM; 24 hours; versus vehicle-treated cells; FIG. 8J, *p<0.05
Method: General. iPSC-derived RPE were generated from AMD patients (2 atrophic; 1 exudative) and patients with no history of AMD (n=3). To test the therapeutic efficacy of elamipretide and compound of Formula IIa, cell viability was analyzed on nitrite-modified extracellular matrix (ECM), a typical modification of aged Bruch's membrane, for 24 hrs. DNA microarrays were used to elucidate gene expression in AMD-derived RPE cultured on nitrite-modified ECM.
Preparation of RPE cell-derived ECM and nitrite-modified ECM RPE cell-derived ECM plates were prepared from ARPE-19 cells as described in Wang et al., Curr Eye Res. 30:691-702 (2005); Fields et al. (2017); and Moreira et al., Transl Vis Sci Technol. 4:10 (2015). ECM on 96-well plates were used to create two experimental plating surfaces (nontreated ECM and nitrite-modified ECM). Nitrite-modified ECM was prepared by adding 100 mM sodium nitrite to ECM followed by incubation at 37° C. for 7 days. Plates were then washed with DPBS and incubated with DPBS for 4 hours to completely remove the nitrite. […]
Cell viability was measured by Real Time-Glo MT Cell Viability Assay (Promega, Madison, WI, www.promega.com) according to the manufacturer's protocol. […] Luminescent signals were acquired using a BioTek FLx800 plate reader (BioTek).

[2] = Uptake in the retina after 10-day SC dosing, LC-MS/MS; format: in vivo, cynomolgus monkey; details: male cynomolgus monkeys 1001-1003, SC 5 mg/kg/day for 10 days, left eye, approximately 24 hours after the last dose
Method: Administration of Compound of Formula IIa. The test agent (compound of formula IIa) was administered daily via subcutaneous injection into the scapular and mid-dorsal areas for 10 days. The first day of dosing was designated as Day 1. Dose formulations were allowed to warm up at ambient temperature for at least 30 minutes prior to dosing, as appropriate. The animals were temporarily restrained for dose administration and were not sedated. The volume for each dose was administered over 1 (preferred) or 2 (as necessary) separated injections within the designated area. If a designated injection site was not available for a given animal on any day, the next available test site in the rotation was used. The injection area was marked as frequently as required to allow appropriate visualization of administration sites. On the last injection occasion for each quadrant, the last site of injection was circled, and the circled site was collected for necropsy.
Tissue collection, preservation, and analysis. Eye tissue (retina) was collected approximately 24 hours after the last dose on Day 10. […]
Tissue samples were prepared and analyzed by methods similar to those described above in Example 3. In brief, concentrations of test article (compound of Formula IIa) in the retina (ng/g tissue) was determined by LC-MS/MS using Formula IIb as a standard.

Compound: Cc1cc(O)cc(C)c1C[C@H](NC(=O)[C@H](N)CCCNC(=N)N)C(=O)N[C@@H](CCCCN)c1nc(Cc2ccccc2)no1.Cl.Cl.Cl [Formula IIa, (R)-2-amino-N—((S)-1-(((S)-5-amino-1-(3-benzyl-1,2,4-oxadiazol-5-yl)pentyl)amino)-3-(4-hydroxy-2,6-dimethylphenyl)-1-oxopropan-2-yl)-5-guanidinopentanamide]
- AMD-derived RPE cell viability on nitrite-modified ECM [1]: significantly enhanced
- Concentration in Retina at Day 11 (individual subjects) [2]: 382 ng/g and 336 ng/g and 126 ng/g
